Source: patent US20100061994A1, “MEDICAL USES OF 39-DESMETHOXYRAPAMYCIN AND ANALOGUES THEREOF” (priority 2005, published 2010)
Where “and” joins values, the source holds several entries; their conditions need not be identical. Identical values can stand only once. Like-named read-outs stand apart in the source and are kept apart here. Each block holds one compound with its values, some of them ahead of it.

Key:
[1] = Human Liver Microsomal (HLM) stability assay; assay type: in vitro ADME; details: 0.001 mM, 0.25 mg/mL protein, NADPH, 37° C.
Description: Liver homogenates provide a measure of a compounds inherent vulnerability to Phase I (oxidative) enzymes, including CYP450s (e.g. CYP2C8, CYP2D6, CYP1A, CYP3A4, CYP2E1), esterases, amidases and flavin monooxygenases (FMOs).
The half life (T½) of test compounds was determined, on exposure to Human Liver Microsomes, by monitoring their disappearance over time by LC-MS. Compounds at 0.001 mM were incubated at for 40 min at 37° C., 0.1 M Tris-HCl, pH 7.4 with human microsomal sub-cellular fraction of liver at 0.25 mg/mL protein and saturating levels of NADPH as co-factor. At timed intervals, acetonitrile was added to test samples to precipitate protein and stop metabolism. Samples were centrifuged and analysed for parent compound using analytical Method A (see Materials & Methods).

Caco-2 cells = test: Caco-2 permeation assay; details: 0.01 mM
Description: (§1) Confluent Caco-2 cells (Li, A. P., 1992; Grass, G. M., et al., 1992, Volpe, D. A., et al., 2001) in a 24 well Corning Costar Transwell format were provided by In Vitro Technologies Inc. (IVT Inc., Baltimore, Md., USA). The apical chamber contained 0.15 mL Hank's balanced buffer solution (HBBS) pH 7.4, 1% DMSO, 0.1 mM Lucifer Yellow. The basal chamber contained 0.6 mL HBBS pH 7.4, 1% DMSO. Controls and tests were incubated at 37° C. in a humidified incubator, shaken at 130 rpm for 1 h. Lucifer Yellow permeates via the paracellular (between the tight junctions) route only, a high Apparent Permeability (Papp) for Lucifer Yellow indicates cellular damage during assay and all such wells were rejected. […] Compounds were tested in a uni- and bi-directional format by applying compound to the apical or basal chamber (at 0.01 mM). Compounds in the apical or basal chambers were analysed by HPLC-MS (Method A, see Materials & Methods). Results were expressed as Apparent Permeability, Papp, (nm/s) and as the Flux Ratio (A to B versus B to A).
(§2) [formula] • Volume Acceptor: 0.6 ml (A>B) and 0.15 ml (B>A) • Area of monolayer: 0.33 cm2 • Δtime: 60 min
(§3) A positive value for the Flux Ratio indicates active efflux from the apical surface of the cells.

FKBP12 = FKBP12 (Homo sapiens, UniProt P62942); test: In vitro FKBP12 binding assay (GdnHCl unfolding)
Sequence of FKBP12 (P62942 whole entry, species assumed): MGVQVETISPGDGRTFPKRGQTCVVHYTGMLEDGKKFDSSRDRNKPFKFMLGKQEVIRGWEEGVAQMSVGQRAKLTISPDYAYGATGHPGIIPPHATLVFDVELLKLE
Source text: FKBP12 reversibly unfolds in the chemical denaturant guandinium hydrochloride (GdnHCl) and the unfolding can be monitored by the change in the intrinsic fluorescence of the protein (Main et al, 1998). Ligands which specifically bind and stabilise the native state of FKBP12 shift the denaturation curve such that the protein unfolds at higher concentrations of chemical denaturant (Main et al, 1999). From the difference in stability, the ligand-binding constant can be determined using equation 1.
where ΔGapp is the apparent difference in free energy of unfolding between free and ligand-bound forms, ΔGD−N^H^2^O is the free energy of unfolding in water of free protein, [L] the concentration of ligand and kd the dissociation constant for the protein-ligand complex (Meiering et al, 1992). The free energy of unfolding can be related to the midpoint of the unfolding transition using the following equation: […]
where mD−N is a constant for a given protein and given denaturant and which is proportional to the change in degree of exposure of residues on unfolding (Tanford 1968 and Tanford 1970), and [D]50% is the concentration of denaturant corresponding to the midpoint of unfolding.
where <mD−N> is the average m-value of the unfolding transition and Δ[D]50% the difference in midpoints for the rapamycin-FKBP12 unfolding transition and unknown-ligand-FKBP12 complex unfolding transition. Under conditions where [L]>Kd, then, ΔΔGD−N, can be related to the relative Kds of the two compounds through equation 4: […]

[2] = Pharmacokinetic analysis Protocol 1 (blood and brain); details: female, CD1, mouse, 3 mg/kg
Caco-2 permeation assay = details: human, Caco-2, pH 7.4
Description: as §1, §2, §3

EAE = test: Experimental allergic encephalomyelitis (EAE) model of multiple sclerosis; assay type: in vivo, male Lewis rats; details: rat, in vivo
[3] = relative to literature Kd of rapamycin 0.2 nM

Compound: 16-O-desmethyl-27-O-desmethyl-39-desmethoxyrapamycin
- HLM stability: T½ min [1]: 47 min
- Caco-2: Efflux Ratio (Caco-2 cells; bi-directional format): 37
- Caco-2: Papp (Caco-2 cells; pH 7.4, 1 h): 1.3 ×10⁻⁶ cm/s
- Kd (FKBP12; [3]): 101 nM

Compound: CO[C@H]1CC2CC[C@@H](C)[C@@](O)(O2)C(=O)C(=O)N2CCCC[C@H]2C(=O)O[C@H]([C@@H](C)CC2CCC(O)CC2)CC(=O)[C@@H](C)/C=C(\C)[C@H](O)[C@H](O)C(=O)[C@@H](C)C[C@H](C)/C=C/C=C/C=C/1C (some centres unmarked) [27-O-desmethyl-39-desmethoxyrapamycin]
- Kp ([2]; brain / whole blood, intravenous): 4.56
- AUC ([2]; whole blood, iv): 1850 ng·h/mL
- half-life at 0.001 mM ([1]; human, liver microsomes, pH 7.4, read-out: HLM stability: T½ min): 27 min
- Papp at 1 h, 0.01 mM (Caco-2 permeation assay): 0.4 ×10⁻⁶ cm/s
- efflux ratio at 1 h, 0.01 mM (Caco-2 permeation assay): 91
- Kd (FKBP12; [3]): 0.8 nM

- Kd (FKBP12): 160 nM
Compound: COC1CC2CCC(C)C(O)(O2)C(=O)C(=O)N2CCCCC2C(=O)OC(C(C)CC2CCC(O)CC2)CC(=O)C(C)C=C(C)C(O)CC(=O)C(C)CC(C)C=CC=CC=C1C (centres unmarked) [27-desmethoxy-39-desmethoxy rapamycin]

Compound: O=P1(N(CCCl)CCCl)NCCCO1 (centres unmarked) [Cyclophosphamide, reference compound]
- Cumulative score Mean ± St Dev. (EAE): 33 ± 14.1 and 37 ± 26.6
- Duration (days) Mean ± St Dev. (EAE): 13 ± 3.4 days and 15 ± 3.2 days
- Onset Mean ± St Dev. (EAE): 13 ± 2.6 and 11 ± 1.1
